Assay results published in patent publication US20260070887A1 (Shenzhen Zhongge Biological Technology Co., Ltd., priority 2022, published 2026).
Like-named read-outs stand apart in the source and are kept apart here.

Experiments:
OVCAR-3 cells = experiment: OVCAR-3 cell proliferation (Cell Titer-Glo, 10 days); assay type: cell-based, human
In short: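 IC50 was fitted by nonlinear regression of percent inhibition versus the 0.1% DMSO control. Luminescence was read with Cell Titer-Glo after 10 days of co-culture of logarithmic-phase cells (400/well) with compound at 0.12 nM–10 μM final, in medium with 20% fetal bovine serum and 0.01 mg/mL insulin.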

KIF18A = KIF18A (Homo sapiens (Human), UniProt Q8NI77); experiment: KIF18A ATPase activity under tubulin stimulation (ADP-Glo assay); assay type: biochemical; conditions: KIF18A 30 nM, ATP 150 μM, pig microtubules
Chain of KIF18A (Q8NI77 whole entry): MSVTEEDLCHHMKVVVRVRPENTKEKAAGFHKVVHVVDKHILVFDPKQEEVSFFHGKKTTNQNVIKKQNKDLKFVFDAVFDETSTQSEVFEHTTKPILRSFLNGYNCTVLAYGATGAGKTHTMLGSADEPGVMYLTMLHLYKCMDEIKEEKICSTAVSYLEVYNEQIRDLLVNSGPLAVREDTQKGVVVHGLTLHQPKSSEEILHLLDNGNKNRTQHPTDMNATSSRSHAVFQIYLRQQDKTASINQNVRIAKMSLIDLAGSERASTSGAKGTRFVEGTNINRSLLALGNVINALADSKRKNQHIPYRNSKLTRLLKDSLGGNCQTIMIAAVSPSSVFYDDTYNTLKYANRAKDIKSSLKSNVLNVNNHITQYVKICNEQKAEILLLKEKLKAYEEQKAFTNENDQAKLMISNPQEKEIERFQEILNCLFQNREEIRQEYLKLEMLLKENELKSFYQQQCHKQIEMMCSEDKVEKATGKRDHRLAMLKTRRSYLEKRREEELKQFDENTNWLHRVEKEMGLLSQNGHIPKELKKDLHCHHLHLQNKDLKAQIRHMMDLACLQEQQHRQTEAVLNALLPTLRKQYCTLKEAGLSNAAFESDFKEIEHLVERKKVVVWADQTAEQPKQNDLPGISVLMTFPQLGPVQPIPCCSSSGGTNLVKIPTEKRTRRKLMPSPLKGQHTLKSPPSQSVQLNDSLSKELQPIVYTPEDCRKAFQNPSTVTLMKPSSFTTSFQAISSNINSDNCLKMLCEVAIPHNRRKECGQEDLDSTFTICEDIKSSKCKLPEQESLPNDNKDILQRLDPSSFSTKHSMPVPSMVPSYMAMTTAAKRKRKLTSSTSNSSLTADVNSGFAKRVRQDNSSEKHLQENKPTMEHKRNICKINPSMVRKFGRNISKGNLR
Chain of KIF18A (P02550 whole entry partner): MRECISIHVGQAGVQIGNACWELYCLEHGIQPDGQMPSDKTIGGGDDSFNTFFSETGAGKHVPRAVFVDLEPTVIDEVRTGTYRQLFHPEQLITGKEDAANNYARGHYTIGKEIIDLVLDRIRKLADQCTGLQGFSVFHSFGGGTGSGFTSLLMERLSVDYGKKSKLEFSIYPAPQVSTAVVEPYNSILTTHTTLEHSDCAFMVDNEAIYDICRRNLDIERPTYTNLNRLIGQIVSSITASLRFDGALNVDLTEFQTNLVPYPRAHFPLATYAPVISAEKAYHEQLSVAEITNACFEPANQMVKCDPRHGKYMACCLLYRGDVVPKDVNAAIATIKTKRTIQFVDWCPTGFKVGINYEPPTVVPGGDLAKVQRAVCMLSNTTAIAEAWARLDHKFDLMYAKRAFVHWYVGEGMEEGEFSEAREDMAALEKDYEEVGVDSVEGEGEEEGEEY
Chain of KIF18A (P02554 whole entry partner): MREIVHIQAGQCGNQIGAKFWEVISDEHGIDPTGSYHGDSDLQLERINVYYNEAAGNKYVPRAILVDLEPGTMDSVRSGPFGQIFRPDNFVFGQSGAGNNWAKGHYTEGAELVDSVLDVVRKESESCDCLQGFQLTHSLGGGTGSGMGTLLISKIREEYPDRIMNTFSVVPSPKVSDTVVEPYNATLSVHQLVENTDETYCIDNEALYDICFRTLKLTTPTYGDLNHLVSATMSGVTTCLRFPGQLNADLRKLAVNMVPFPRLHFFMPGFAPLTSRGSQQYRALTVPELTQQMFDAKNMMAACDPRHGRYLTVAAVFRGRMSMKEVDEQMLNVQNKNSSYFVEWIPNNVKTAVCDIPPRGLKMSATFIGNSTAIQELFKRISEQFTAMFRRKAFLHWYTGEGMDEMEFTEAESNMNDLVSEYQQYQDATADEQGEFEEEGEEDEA

HCC1954 cells = experiment: HCC1954 cell proliferation (Cell Titer-Glo, 6 days); assay type: cell-based; conditions: KIF18A-sensitive tumor cells
Experimental: (§1) The inhibitory effect on the KIF18A target by the compounds of the present disclosure was evaluated by testing the inhibitory effect on proliferation of HCC1954 and HCC1395 cells by the compounds of the present disclosure.
(§2) HCC1954 (ATCC, CRL-2388) and HCC1395 (ATCC, CRL-2324) cells were cultured separately in RPMI-1640 complete medium (Gibco, A1049101) containing 20% fetal bovine serum (Gibco, 10099141C), 100 U penicillin, and 100 μg/mL streptomycin (Gibco, 15140-122). The Promega kit Cell Titer-Glo (Promega: G7572) was used in this method for test. • 1. HCC1954 (KIF18A-sensitive tumor cells) and HCC1395 (KIF18A-insensitive tumor cells) were cultured separately in T75 cell culture flasks (Corning, 430641), and the medium was placed in a 37° C., 5% CO2 incubator. • 2. When the cell density reached 70% to 80% (about 2 to 3 times per week), cells are passaged with trypsin (0.25% EDTA). • 3. The cell culture flask was taken out and the cells were separated by adding 2 mL of trypsin (0.25% EDTA source) for 5 minutes. • 4. Digestion was stopped by adding 8 mL of RPM1-1640 medium and the cell suspension was transferred to a centrifuge tube and centrifuged at 1000 rpm for 5 minutes. • 5. The cells were resuspended with 5 mL of RPMI-1640 medium. Cell density was adjusted to 5×10^3/mL (HCC1954), and 2.5×10^4/mL (HCC1395), respectively. • 6. 40 μL of cell solution was added to the 384-well plate (Corning, 3765). • 7. The 384-well plate was centrifuged at 1000 rpm for 1 minute. • 8. The cells were cultured overnight in a 37° C., 5% CO2 incubator. • 9. The next day, 40 nL of compound solution was added to the 384-well plate using Echo650. The plate was then placed in a 37° C., 5% CO2 incubator for 6 days. • 10. After 6 days, 20 μL of Cell-Titer-Glo (Promega, G7572) reagent was added per well. • 11. Luminescence values were measured using the EnVision Xcite Multilabel Reader (PerkinElmer, 2105-0020).
(§3) The percentage of inhibition of cell proliferation by the test compound at each concentration was calculated by comparing with the values of the control group (0.1% DMSO). The IC50 values of the compounds were obtained by concentration-inhibition rate nonlinear regression analysis of the test compounds using GraphPad Prism 9.

HCC1395 cells = experiment: HCC1395 cell proliferation (Cell Titer-Glo, 6 days); assay type: cell-based; conditions: KIF18A-insensitive tumor cells
Experimental: as §1, §2, §3

PK study in ICR mice = assay type: in vivo, mouse; conditions: both sexes, mouse, plasma, route and dose not given
Experimental: 6 ICR mice (male/female) were divided into two groups, administered orally and intravenously, respectively, with 3 mice/group. The mice were fasted for 10-14 hours prior to dosing with free access to water.
The test compound was weighed according to the administration dose, and prepared into a dose formulation at appropriate concentrations (for rats and mice, intravenous and oral administration at a volume of 5 mL/kg and 10 mL/kg, respectively), wherein the intravenous injection was a clear solution, and the oral preparation was a clear solution or a homogeneous suspension.
Animals were dosed by intravenous injection and oral gavage, and blood samples were collected at 0.033, 0.083, 0.25, 0.5, 1, 2, 4, 8, and 24 h after intravenous administration and 0.083, 0.25, 0.5, 1, 2, 4, 6, 8, and 24 h after oral administration. Whole blood was centrifuged at 6800 g for 6 min at 4° C. and the top plasma was stored in a −80° C. freezer for later analysis.
The DMSO stock solution of the test compound was diluted into a series of working solutions with a methanol or an acetonitrile solution, and added to a blank plasma matrix, and standard curves were generated and quality control samples were prepared. An appropriate volume of the plasma sample was taken and a suitable multiple of methanol or acetonitrile containing an internal standard was added for protein precipitation based on the response. After centrifugation of all samples at 18000 g for 10 min at 4° C., an appropriate amount of supernatant was taken for LC-MS/MS injection analysis.
Drug concentration-time curves in plasma were plotted according to test concentrations, and pharmacokinetic parameters were calculated using noncompartmental analysis by WinNonlin software, including: half-life (T½), area under the concentration-time curve from time zero to time t (AUCO-t), clearance (CL), volume of distribution at steady state (Vss) and bioavailability (F), with some of the test results shown in Table 4.

hERG channel = hERG channel (Homo sapiens (Human), UniProt Q12809); experiment: hERG manual patch clamp test; assay type: cell-based
Chain of hERG channel (Q12809 whole entry, the tested form may be a part): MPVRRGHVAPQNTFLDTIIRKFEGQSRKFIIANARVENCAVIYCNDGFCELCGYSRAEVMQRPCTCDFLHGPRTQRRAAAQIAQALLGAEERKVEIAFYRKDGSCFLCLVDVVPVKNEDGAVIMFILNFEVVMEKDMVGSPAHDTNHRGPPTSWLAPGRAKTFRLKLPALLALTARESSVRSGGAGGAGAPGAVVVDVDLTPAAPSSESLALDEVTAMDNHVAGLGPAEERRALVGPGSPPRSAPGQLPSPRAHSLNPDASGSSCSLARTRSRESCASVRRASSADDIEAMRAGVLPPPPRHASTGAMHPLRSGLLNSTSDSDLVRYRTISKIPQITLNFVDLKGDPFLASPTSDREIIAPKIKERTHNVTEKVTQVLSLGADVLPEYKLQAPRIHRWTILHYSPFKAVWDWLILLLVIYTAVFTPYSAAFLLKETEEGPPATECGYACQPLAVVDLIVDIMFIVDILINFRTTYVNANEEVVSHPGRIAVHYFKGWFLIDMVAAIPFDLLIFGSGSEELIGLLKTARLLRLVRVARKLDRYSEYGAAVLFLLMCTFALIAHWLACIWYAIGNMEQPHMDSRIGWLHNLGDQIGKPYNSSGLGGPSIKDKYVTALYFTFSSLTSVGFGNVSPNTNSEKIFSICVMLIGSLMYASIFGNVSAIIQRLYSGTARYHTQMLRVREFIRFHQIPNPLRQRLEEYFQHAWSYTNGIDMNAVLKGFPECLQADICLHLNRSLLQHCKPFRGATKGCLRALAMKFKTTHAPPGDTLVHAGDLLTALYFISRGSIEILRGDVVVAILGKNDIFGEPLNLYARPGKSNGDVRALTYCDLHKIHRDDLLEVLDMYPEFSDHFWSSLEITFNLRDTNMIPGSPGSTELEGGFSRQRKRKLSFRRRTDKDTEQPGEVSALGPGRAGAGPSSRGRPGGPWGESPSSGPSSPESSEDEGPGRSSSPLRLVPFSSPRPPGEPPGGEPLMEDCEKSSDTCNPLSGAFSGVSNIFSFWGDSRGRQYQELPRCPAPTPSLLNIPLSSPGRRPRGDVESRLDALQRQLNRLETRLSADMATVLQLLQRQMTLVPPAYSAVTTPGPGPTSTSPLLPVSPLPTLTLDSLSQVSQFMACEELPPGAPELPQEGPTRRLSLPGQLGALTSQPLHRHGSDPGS
Experimental: The cells used in this test were the HEK293 cell line transfected with hERG cDNA and stably expressing the hERG channel (#60187, supplied by BPS, passages P3-P23 for experimental studies). The cells were cultured in a medium containing the following components: MEM medium containing 10% (v/v) inactivated fetal calf serum, 1 mM sodium pyruvate, 500 μg/ml geneticin, 0.1 mM non-essential amino acids, and 100 U/m1 penicillin/streptomycin. HEK293 hERG cells were grown in a culture dish containing the above-mentioned medium, cultured in a 37° C., 5% CO2 incubator, and passaged approximately three times per week, with the cell fusion rate between 40% and 80%. 24 to 48 hours prior to electrophysiological experiments, HEK293 hERG cells were transferred to 0.05 mg/ml PDL-pretreated slides, seeded at a density of 1×10^4 cells per well in a 48-well plate, and grown in the same medium and under the same culture conditions. The density of HEK293 hERG cells on each circular slide needs to reach the requirement that most cells are independent and individual. The extracellular fluid components used in the hERG assay were as follows (mM): 145 NaCl, 4 KCl, 2 CaCl2, 1 MgCl2, 10 glucose, and 10 HEPES (pH adjusted to 7.40 with NaOH). The intracellular fluid components were as follows (mM): 130 KCl, 2 MgCl2, 5 EGTA, 10 HEPES and 5 Na2ATP (pH adjusted to 7.25 with KOH). […] Prior to the experiment, the compound was first serially diluted with DMSO to prepare stock solutions at 10, 3, 1, 0.3, and 0.1 mM, which were then further diluted with extracellular fluid to achieve the final test concentrations (in μM). The final concentration of DMSO in compound solutions at various concentrations was between 0.1% and 0.3%. All compound solutions are routinely sonicated for 5 to 10 min and shaken sufficiently to ensure complete dissolution of the compound, and all test solutions are mixed well by rotation for at least 10 min.
Electrophysiological tests were performed using a manual patch clamp system (HEKA EPC-10 signal amplifier and digital conversion system, HEKA Electronics, Germany) for the recording of whole cell currents. The specific test method was described as follows: Circular slides with […] hERG cells growing on the surface were placed in an electrophysiological recording chamber under an inverted microscope. The recording chamber was continuously perfused with extracellular fluid (at approximately 1 mL/min). The conventional whole-cell patch-clamp technique was employed for current recordings throughout the experiment. If not specified, the experiments were carried out at normal room temperature (about 25° C.). The cells were clamped at −80 mV. The cell clamp voltage was depolarized to +30 mV to activate the hERG potassium channel, and then clamped to −50 mV after 5 seconds to eliminate inactivation and produce a tail current. The peak tail current value was used as a value for the magnitude of the hERG current. The potassium current of hERG recorded in the above steps was stabilized by continuous extracellular fluid perfusion in the recording chamber, and the drug to be tested was continuously perfused until the inhibitory effect of the drug on hERG currents had stabilized. The coincidence of the most recent three consecutive current recording traces was typically taken as the criteria for determining whether steady-state conditions were achieved.
Dose-response curves of the test compounds were plotted with % hERG inhibition rate as the y-axis and test compound concentration as the x-axis, to calculate the IC50 values.

| SMILES | IC50 (OVCAR-3 cells) [nM] | IC50 (KIF18A) [nM] | IC50 (HCC1954 cells) [nM] | IC50 (HCC1395 cells) [nM] | IC50 (OVCAR-3 cells; Homo sapiens, OVCAR-3, 240 h) [nM] | IC50 (HCC1954 cells; Homo sapiens, HCC1954, 144 h) [nM] | IC50 (HCC1395 cells; Homo sapiens, HCC1395, 144 h) [nM] | AUC (PK study in ICR mice; read-out: AUC) [ng·h/mL] | Cmax (PK study in ICR mice; read-out: Cmax) [ng/mL] | IC50 (hERG channel) [nM] |
| --- | --- | --- | --- | --- | --- | --- | --- | --- | --- | --- |
| O=C(Nc1cccc2c1cc1n2CCCC1)c1ccc(NS(=O)(=O)CCO)cc1N1CCC2(CC1)CC2 [Example 126, 4-((2-hydroxyethyl)sulfonamide)-2-(6-azaspiro[2.5]octan-6-yl)-N-(6,7,8,9-tetrahydropyridine[1,2-a]indole-1)benzamide] | 50 to 500 | ≤ 50 | 10 to 500 | > 5000 |  |  |  |  |  |  |
| CN1CCn2c(cc3c(NC(=O)c4ccc(NS(=O)(=O)CCO)cc4N4CCC5(CC4)CC5)cccc32)C1 [Example 234, 4-(2-hydroxyethyl)sulfonamido-N-(2-methyl-1,2,3,4-tetrahydropyrazino[1,2-a]indol-9-yl)-2-(6-azaspiro[2.5]octan-6-yl)benzamide] |  | 50 to 500 |  |  | 50 to 500 | 10 to 500 | > 5000 |  |  |  |
| O=C(Nc1cccc2nn(CC3CC3)cc12)c1ccc(NS(=O)(=O)CCO)cc1N1CCC2(CC1)CC2 [Example 269] | 50 to 500 | ≤ 50 | 10 to 500 | > 5000 |  |  |  |  |  |  |
| O=C(Nc1ccnc2c1cc1n2CCOC1)c1ccc(NS(=O)(=O)CCO)cc1N1CCC2(CC1)CC2 [Example 303, N-(8,9-dihydro-6H-pyrido[3′,2′:4,5]pyrrolo[2,1-c][1,4]oxazin-4-yl)-4-((2-hydroxyethyl)sulfonamido)-2-(6-azaspiro[2.5]octan-6-yl)benzamide] |  | ≤ 50 |  |  | 50 to 500 | 10 to 500 | > 5000 |  |  |  |
| O=C(Nc1cccc2c1nc1n2CCOC1)c1ccc(NS(=O)(=O)CCO)cc1N1CCC2(CC1)CC2 [Example 304, N-(3,4-dihydro-1H-benzo[4,5]imidazo[2,1-c][1,4]oxazin-9-yl)-4-((2-hydroxyethyl)sulfonamido)-2-(6-azaspiro[2.5]octan-6-yl)benzamide] |  | ≤ 50 |  |  | ≤ 50 | 10 to 500 | > 5000 |  |  |  |
| O=C(Nc1ccc(F)c2c1cc1n2CCOC1)c1ccc(NS(=O)(=O)CCO)cc1N1CCC2(CC1)CC2 [Example 305, N-(6-fluoro-3,4-dihydro-1H-[1,4]oxazino[4,3-a]indol-9-yl)-4-((2-hydroxyethyl)sulfonamido)-2-(6-azaspiro[2.5]oct-6-yl)benzamide] |  | ≤ 50 |  |  | 50 to 500 | 10 to 500 | > 5000 |  |  |  |
| CC1OCCn2c1cc1c(NC(=O)c3ccc(NS(=O)(=O)CCO)cc3N3CCC4(CC3)CC4)cccc12 (stereo not shown) [Example 311, 4-((2-hydroxyethyl)sulfonamido)-N-(1-methyl-3,4-dihydro-1H-[1,4]oxazinyl[4,3-a]indol-9-yl)-2-(6-azaspiro[2.5]oct-6-yl)benzamide] | ≤ 50 | ≤ 50 | 10 to 500 | > 5000 |  |  |  |  |  |  |
| CC1OCCn2c1cc1c(NC(=O)c3ccc(NS(=O)(=O)CCO)cc3N3CCC(=C(F)F)CC3)cccc12 (stereo not shown) [Example 320, 2-(4-(difluoromethylene)piperidin-1-yl)-4-((2-hydroxyethyl)sulfonamido)-N-(1-methyl-3,4-dihydro-1H-[1,4]oxazino[4,3-a]indol-9-yl)benzamide] |  | 50 to 500 |  |  | ≤ 50 | 10 to 500 | > 5000 |  |  |  |
| COC1c2cc3c(NC(=O)c4ccc(NS(=O)(=O)CCO)cc4N4CCC5(CC4)CC5)cccc3n2CCC1(F)F (stereo not shown) [Example 340, N-(8,8-difluoro-9-methoxy-6,7,8,9-tetrahydropyridino[1,2-a]indol-1-yl)-4-((2-hydroxyethyl)sulfonamido)-2-(6-azaspiro[2.5]oct-6-yl)benzamide] |  | 50 to 500 |  |  | ≤ 50 | 10 to 500 | > 5000 |  |  |  |
| COc1ccc(NC(=O)c2ccc(NS(=O)(=O)CCO)cc2N2CCC3(CC2)CC3)c2cc3n(c12)CCC(F)(F)C3 [Example 478, N-(8,8-difluoro-4-methoxy-6,7,8,9-tetrahydropyridino[1,2-a]indol-1-yl)-4-(2-hydroxyethylsulfonamido)-2-(6-azaspiro[2.5]octan-6-yl)benzamide] |  |  |  |  | ≤ 50 |  |  | 48500 | 6020 | 8000 |
